# Assay results published in patent US20240139211A1, “METHODS AND COMPOSITIONS FOR TREATING AMYOTROPHIC LATERAL SCLEROSIS” (Amylyx Pharmaceuticals, Inc., priority 2022, published 2024).
# Where two headings read alike, the source gives them in different places.
# Tests used:
# MATE2K = MATE2K (Homo sapiens, UniProt Q86VL8); experiment: Substrate of MATE2-K, uptake in HEK293 cells
# Excerpt: (§1) Vector-transfected HEK cells were used as a control.
# human hepatocytes = experiment: Stability of test articles in hepatocyte cultures; details: two concentrations
# OATP1B1 = OATP1B1 (Homo sapiens, UniProt Q9Y6L6); experiment: Substrate of OATP1B1, uptake in HEK293 cells
# Excerpt: as §1
# BSEP = BSEP (Homo sapiens, UniProt O95342); experiment: Inhibitor of BSEP
# CYP1A2 mRNA = experiment: CYP1A2 gene expression induction in hepatocyte cultures; details: gene expression and enzyme activity, three donors
# BCRP = target: T1, BCRP (Homo sapiens, UniProt Q9UNQ0); experiment: Inhibitor of BCRP, 3H-estrone-3-sulfate efflux in Caco-2 cells
# T1 sequence (Q9UNQ0 1-655): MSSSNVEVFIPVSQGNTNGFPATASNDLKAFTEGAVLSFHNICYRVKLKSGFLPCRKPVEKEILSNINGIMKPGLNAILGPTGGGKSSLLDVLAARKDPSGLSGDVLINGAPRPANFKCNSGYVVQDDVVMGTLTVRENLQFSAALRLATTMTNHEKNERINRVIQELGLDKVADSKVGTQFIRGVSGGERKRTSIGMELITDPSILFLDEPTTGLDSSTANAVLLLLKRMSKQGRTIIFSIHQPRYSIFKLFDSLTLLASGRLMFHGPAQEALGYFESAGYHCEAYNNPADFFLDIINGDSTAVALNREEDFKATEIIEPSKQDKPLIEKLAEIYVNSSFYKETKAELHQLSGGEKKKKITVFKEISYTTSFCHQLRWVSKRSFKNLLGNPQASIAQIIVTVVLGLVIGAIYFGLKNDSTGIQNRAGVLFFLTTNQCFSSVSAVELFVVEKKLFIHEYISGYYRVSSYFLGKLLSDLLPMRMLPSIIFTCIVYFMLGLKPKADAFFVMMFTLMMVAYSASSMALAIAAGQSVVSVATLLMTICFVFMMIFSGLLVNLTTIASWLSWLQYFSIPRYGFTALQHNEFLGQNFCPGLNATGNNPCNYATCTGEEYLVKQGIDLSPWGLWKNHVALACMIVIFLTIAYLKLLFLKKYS
# MATE1 = target: T2, MATE1 (Homo sapiens, UniProt Q96FL8); experiment: Substrate of MATE1, uptake in HEK293 cells
# T2 sequence (Q96FL8 1-570): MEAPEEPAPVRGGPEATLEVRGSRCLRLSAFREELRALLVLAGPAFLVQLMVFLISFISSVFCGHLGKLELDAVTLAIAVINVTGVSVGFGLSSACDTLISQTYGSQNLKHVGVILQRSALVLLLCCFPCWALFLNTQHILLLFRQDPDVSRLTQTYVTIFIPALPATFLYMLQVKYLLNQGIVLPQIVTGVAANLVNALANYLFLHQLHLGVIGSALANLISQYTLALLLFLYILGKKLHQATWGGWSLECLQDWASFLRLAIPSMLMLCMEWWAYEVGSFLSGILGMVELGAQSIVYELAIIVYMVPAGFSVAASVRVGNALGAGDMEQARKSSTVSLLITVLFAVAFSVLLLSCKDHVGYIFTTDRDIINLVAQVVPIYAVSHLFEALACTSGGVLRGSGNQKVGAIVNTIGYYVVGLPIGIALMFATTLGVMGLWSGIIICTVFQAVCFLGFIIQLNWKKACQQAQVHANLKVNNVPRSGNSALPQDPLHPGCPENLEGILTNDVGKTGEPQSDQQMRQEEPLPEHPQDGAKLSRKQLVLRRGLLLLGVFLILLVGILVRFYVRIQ
# Excerpt: as §1
# OAT1 = target: T3, OAT1 (Homo sapiens, UniProt Q4U2R8); experiment: Inhibitor of OAT1, probe substrate uptake; details: two concentrations per test article
# T3 sequence (Q4U2R8 1-563): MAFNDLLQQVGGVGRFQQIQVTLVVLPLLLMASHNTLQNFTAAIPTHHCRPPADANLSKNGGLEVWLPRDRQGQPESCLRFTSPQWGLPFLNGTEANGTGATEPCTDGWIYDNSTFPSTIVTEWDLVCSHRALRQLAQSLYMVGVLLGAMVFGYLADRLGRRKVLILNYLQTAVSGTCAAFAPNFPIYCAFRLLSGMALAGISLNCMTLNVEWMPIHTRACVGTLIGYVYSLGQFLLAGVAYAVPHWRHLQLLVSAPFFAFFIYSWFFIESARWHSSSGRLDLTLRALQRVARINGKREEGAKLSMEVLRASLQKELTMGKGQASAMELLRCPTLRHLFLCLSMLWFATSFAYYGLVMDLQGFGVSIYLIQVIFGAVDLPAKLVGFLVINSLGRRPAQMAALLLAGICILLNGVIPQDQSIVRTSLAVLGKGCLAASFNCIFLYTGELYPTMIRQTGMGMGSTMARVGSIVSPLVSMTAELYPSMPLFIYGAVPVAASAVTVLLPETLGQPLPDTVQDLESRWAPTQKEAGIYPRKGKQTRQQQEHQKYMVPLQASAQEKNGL
# P-gp = P-gp (Homo sapiens, UniProt P08183); experiment: Inhibitor of P-gp, 3H-digoxin efflux in Caco-2 cells; details: for potency estimated from few doses: read-out: Estimated IC50, P-gp
# [1] = two concentrations per test article
# [2] = Caco-2, two concentrations per test article
# [3] = two concentrations per test article, Caco-2 cells
# P-gp, sequence (P08183 whole entry): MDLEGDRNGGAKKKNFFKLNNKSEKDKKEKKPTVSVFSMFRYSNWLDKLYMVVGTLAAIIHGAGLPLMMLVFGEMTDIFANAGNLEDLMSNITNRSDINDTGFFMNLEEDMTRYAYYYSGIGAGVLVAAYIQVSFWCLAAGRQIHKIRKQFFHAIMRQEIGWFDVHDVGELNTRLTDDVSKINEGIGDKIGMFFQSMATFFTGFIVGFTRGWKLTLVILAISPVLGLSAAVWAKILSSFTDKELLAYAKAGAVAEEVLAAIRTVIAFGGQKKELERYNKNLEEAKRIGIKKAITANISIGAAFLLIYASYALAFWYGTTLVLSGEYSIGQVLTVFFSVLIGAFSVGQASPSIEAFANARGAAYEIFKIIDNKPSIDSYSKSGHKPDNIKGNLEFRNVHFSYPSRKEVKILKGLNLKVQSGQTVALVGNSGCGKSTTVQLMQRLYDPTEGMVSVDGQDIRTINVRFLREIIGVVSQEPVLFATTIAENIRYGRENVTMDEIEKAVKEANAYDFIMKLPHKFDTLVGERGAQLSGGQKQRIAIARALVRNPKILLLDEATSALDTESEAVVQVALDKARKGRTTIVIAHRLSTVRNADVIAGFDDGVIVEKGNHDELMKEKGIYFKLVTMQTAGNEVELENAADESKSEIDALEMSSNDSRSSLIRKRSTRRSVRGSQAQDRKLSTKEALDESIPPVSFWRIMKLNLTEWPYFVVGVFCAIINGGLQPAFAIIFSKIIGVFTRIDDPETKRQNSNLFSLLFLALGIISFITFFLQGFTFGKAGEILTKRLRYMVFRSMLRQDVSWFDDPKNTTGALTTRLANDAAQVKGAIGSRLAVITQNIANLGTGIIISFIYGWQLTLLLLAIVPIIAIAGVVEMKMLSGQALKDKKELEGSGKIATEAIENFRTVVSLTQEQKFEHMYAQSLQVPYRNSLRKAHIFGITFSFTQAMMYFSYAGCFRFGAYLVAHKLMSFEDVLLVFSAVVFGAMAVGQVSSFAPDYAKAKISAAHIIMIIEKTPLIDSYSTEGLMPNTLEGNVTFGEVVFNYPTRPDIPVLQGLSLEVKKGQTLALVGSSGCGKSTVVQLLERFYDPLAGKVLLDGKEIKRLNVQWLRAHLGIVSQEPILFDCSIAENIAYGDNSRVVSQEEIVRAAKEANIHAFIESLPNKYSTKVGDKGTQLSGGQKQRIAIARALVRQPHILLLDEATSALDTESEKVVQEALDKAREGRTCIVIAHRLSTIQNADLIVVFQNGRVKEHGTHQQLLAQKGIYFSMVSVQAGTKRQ
# BSEP, sequence (O95342 whole entry): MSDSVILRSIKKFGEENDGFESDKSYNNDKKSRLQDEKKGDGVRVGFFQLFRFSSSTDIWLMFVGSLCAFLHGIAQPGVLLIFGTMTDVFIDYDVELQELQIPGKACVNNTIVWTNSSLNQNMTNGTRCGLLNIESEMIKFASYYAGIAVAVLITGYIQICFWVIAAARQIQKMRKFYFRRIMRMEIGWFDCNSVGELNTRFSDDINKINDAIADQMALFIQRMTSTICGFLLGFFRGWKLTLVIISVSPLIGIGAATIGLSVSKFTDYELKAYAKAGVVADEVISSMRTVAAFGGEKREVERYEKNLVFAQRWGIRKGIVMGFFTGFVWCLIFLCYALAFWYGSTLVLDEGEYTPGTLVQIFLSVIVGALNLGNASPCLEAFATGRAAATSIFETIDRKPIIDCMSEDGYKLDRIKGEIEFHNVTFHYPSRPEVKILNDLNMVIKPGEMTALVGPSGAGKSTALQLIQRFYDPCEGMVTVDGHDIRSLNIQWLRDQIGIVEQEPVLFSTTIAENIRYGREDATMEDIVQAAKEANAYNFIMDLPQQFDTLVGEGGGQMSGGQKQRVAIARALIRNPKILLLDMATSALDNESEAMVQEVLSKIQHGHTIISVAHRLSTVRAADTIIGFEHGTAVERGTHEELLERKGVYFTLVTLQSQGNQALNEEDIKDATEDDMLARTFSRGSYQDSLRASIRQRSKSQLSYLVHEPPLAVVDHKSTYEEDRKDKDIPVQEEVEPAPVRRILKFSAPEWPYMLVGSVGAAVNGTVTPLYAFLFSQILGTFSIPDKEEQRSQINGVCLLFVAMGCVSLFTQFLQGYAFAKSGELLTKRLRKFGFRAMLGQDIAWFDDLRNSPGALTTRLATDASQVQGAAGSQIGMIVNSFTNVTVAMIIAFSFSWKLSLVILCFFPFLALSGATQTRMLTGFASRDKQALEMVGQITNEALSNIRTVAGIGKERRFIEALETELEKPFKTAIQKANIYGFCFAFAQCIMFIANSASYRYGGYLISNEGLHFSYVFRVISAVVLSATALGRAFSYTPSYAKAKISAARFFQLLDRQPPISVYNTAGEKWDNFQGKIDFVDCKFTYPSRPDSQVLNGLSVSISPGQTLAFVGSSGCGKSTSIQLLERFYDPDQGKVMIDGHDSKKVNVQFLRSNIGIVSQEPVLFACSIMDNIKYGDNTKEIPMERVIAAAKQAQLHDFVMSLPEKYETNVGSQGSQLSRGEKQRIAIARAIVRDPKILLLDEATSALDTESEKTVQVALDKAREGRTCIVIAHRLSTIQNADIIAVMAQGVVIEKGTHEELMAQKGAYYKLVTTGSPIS
# MATE2K, sequence (Q86VL8 1-566 isoform Q86VL8-3): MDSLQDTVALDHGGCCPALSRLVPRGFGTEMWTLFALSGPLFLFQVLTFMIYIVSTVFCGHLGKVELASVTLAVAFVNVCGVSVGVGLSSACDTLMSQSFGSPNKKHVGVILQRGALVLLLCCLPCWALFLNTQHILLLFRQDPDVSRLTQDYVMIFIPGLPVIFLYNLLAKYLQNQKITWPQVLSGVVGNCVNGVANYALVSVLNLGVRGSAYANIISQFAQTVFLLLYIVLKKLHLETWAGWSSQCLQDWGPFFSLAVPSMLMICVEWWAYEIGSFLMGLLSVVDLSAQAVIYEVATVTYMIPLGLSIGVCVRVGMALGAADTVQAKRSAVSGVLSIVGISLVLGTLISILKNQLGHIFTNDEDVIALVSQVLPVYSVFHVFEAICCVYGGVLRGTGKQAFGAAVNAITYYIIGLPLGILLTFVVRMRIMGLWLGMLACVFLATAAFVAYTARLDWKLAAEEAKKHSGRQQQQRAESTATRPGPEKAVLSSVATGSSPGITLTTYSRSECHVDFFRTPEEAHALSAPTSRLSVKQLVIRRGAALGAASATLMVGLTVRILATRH
# OATP1B1, sequence (Q9Y6L6 whole entry): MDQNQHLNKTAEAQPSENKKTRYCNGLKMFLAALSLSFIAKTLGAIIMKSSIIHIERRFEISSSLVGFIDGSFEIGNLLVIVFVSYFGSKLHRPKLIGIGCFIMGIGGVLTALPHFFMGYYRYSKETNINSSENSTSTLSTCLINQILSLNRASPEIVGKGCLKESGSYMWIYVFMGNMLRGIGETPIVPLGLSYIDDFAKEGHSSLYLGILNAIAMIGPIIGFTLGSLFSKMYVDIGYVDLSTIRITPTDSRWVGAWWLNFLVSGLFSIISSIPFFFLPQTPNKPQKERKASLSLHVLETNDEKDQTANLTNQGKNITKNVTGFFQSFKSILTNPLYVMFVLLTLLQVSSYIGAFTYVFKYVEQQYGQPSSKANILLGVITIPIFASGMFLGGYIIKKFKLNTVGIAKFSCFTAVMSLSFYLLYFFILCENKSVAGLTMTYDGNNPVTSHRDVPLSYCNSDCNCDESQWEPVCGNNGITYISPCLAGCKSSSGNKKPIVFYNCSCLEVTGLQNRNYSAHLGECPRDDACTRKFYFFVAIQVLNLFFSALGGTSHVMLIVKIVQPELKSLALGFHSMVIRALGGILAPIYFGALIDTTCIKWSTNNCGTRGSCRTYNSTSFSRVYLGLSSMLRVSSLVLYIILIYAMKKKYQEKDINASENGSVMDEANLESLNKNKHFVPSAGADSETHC
substance,measurement,setting,value
tauroursodeoxycholic acid [TUDCA],Substrate of MATE2-K,MATE2K; 1 and 10 μM,not a substrate
same,Substrate of MATE2-K,MATE2K; test article 1 and 10 μM,No
same,% of time zero remaining in hepatocyte cultures,human hepatocytes; 1 hour,≤ 79.9%
same,% of time zero remaining in hepatocyte cultures,human hepatocytes; 4 hours,≤ 75.9%
same,% of time zero remaining in hepatocyte cultures,human hepatocytes; 24 hours,≤ 23.5%
same,Substrate of OATP1B1,OATP1B1; 1 and 10 μM,not a substrate
same,Substrate of OATP1B1,OATP1B1; test article 1 and 10 μM,No
same,potency estimated from few doses,"BSEP; read-out: Estimated IC50, BSEP, estimated from two concentrations",< 5 µM
same,Inhibition of BSEP,BSEP; [1],inhibited
same,Inhibitor of BSEP,BSEP; [1],Yes
same,Inducer of CYP1A2 (conclusion),CYP1A2 mRNA,did not meet the classification requirements to be identified as an inducer
same,Inhibitor of BCRP,BCRP; [2],not an inhibitor
same,"Remaining BCRP activity, % of the control",BCRP; higher test concentration (UDCA: second assay),92.3%
same,"Remaining BCRP activity, % of the control",BCRP; lower test concentration (UDCA: second assay),111%
same,Inhibitor of BCRP,BCRP; [3],No
same,Substrate of MATE1,MATE1; 1 and 10 μM,not a substrate
same,Substrate of MATE1,MATE1; test article 1 and 10 μM,No
same,Inhibition of OAT1,OAT1,did not inhibit
same,Inhibitor of OAT1,OAT1,No
same,Inhibitor of P-gp,P-gp; [2],identified as an inhibitor
same,"Remaining P-gp activity, % of the control",P-gp; higher test concentration,57.3%
same,"Remaining P-gp activity, % of the control",P-gp; lower test concentration,78.8%
same,potency estimated from few doses,"P-gp; Caco-2, estimated from two doses",> 50 µM
same,potency estimated from few doses,"P-gp; estimated from two concentrations, Caco-2 cells",> 50 µM
same,Inhibitor of P-gp,P-gp; [3],Yes
